Columns and labels:
[1] = test system: BRCA1-mutated MDA-MB-436 cells; test: Proliferation inhibitory test of BRCA1-mutated MDA-MB-436 cells (CCK-8); assay type: cell-based; conditions: Homo sapiens, 120 h, 5 days, read-out: IC50 (nM), inhibitory activity against BRCA1-mutated MDA-MB-436 cells
Protocol: (§1) CCK-8 was used to measure the content of mitochondrial dehydrogenase in cells at different drug concentrations, and the luminescence intensity was used to reflect the cell activity. The IC50 values of different compounds on BRCA1-mutated MDA-MB-436 cells were calculated using the survival rate, and the proliferation inhibitory effect of the compounds of the present disclosure on BRCA1-mutated MDA-MB-436 cells was studied to evaluate the anti-tumor efficacy of the test compounds at the cellular level.
(§2) On Day −1, the cells were inoculated into the 96-well cell culture plate at a fixed cell density and then placed in the 5% CO2 cell incubator for culture overnight at 37° C.
(§3) On Day 0, the compound to be tested was prepared into a 10 mM stock solution and diluted into 9 concentration points at the concentration of 1,000 nM, 300 nM, 100 nM, 30 nM, 10 nM, 3 nM, 1 nM, 0.3 nM and 0.1 nM in two duplicated wells. A fixed volume of the diluted compound was added to the 96-well cell culture plate and then placed in the 5% CO2 cell incubator for culture at 37° C. for 5 days.
(§4) On Day 5, a fixed volume of CCK-8 was added to the 96-well cell culture plate and incubated in the 5% CO2 cell incubator at 37° C. for 1.5 h, and the plate was read by a chemiluminescence module of the multifunctional microplate reader.
(§5) With the logarithmic value of the concentration as an X axis and the survival percentage as a Y axis, a dose-effect curve was fitted by using a log(inhibitor) vs. response-Variable slop (Four parameters) formula of the analysis software Graphpad Prism 9, thereby obtaining the IC50 value of the anti-proliferation inhibitory activity of each compound against BRCA1-mutated MDA-MB-436 cells.

[2] = test system: BRCA1-mutated HCC1395 cells; test: Proliferation inhibitory test of BRCA1-mutated HCC1395 cells (CCK-8); assay type: cell-based; conditions: Homo sapiens, 120 h, 5 days, read-out: IC50 (nM), inhibitory activity against BRCA1-mutated HCC1395 cells
Protocol: as §1, with “HCC1395” for “MDA-MB-436”
as §2, §3, §4
as §5, with “HCC1395” for “MDA-MB-436”

[3] = Study on pharmacokinetics of rats (oral gavage, plasma LC-MS/MS); assay type: in vivo; conditions: female SD rats, po. 3 mg/kg
Protocol: With SD rats as test animals, the plasma concentration in the plasma of rats at different time points after oral administration of the compounds of the present application was determined by an LC-MS/MS method. Pharmacokinetic parameters of the compounds of the present application in rats were obtained to study pharmacokinetic characteristics.
SD rats, female, body weight 180-220 g, 3 rats per group. After being purchased, the animals were fed in an animal house for an adaptation period of at least 3 days and then used for testing after passing quarantine.
3.1. Grouping: The SD rats were randomly grouped according to Table 4, which had no statistical difference in the body weight between groups after grouping.
3.2. Vehicle: 10% DMSO and 90% (20% SBE-β-CD in saline).
According to Table 4, each compound was prepared into a clear solution with the vehicle, respectively, and each group was administered by gavage with the corresponding test drug. Before administration, and at 15 min, 30 min, 1 h, 2 h, 4 h, 6 h, 8 h and 24 h after the administration, a fixed volume of blood was collected through sinuses jugularis, placed in an EDTA-K2 anticoagulant tube, and centrifuged at 4,000 rpm for 10 min to separate the plasma in a centrifuge tube. The plasma was frozen in a refrigerator at −80° C.
The plasma stored at −80° C. at each time point was taken out, and a fixed volume of acetonitrile was added thereto. After being vortexed at 1,500 rpm for 2 min, it was centrifuged for 15 min (3,500 r/min). A fixed volume of solution supernatant was taken for LC-MS/MS analysis.
The pharmacokinetic behaviors of the test compounds were fitted with a non-compartmental model, and the main pharmacokinetic parameters were calculated using DAS3.31 software.

IC50 [1]: 2.2 nM | IC50 [2]: 2.56 nM | Cl_F_obs [3]: 2.33 mL/min/kg | AUC(0-t) ([3]; rat): 21300 ng·h/mL | Cmax ([3]; rat): 2210 ng/mL | half-life ([3]; rat): 6.26 h
Structure (SMILES): Cc1nc(C(=O)NC2CC2)ccc1N1CCN(Cc2cc(F)c3nc(C)c(=O)[nH]c3c2)CC1 [Compound 55, N-cyclopropyl-5-(4-((8-fluoro-2-methyl-3-oxo-3,4-dihydroquinoxalin-6-yl)methyl)piperazin-1-yl)-6-methylpicolinamide]

From US20250346573A1, “AZAQUINOLINONE DERIVATIVE, PREPARATION METHOD THEREFOR AND USE THEREOF” (CHENGDU EASTON BIOPHARMACEUTICALS CO., LTD., priority 2022, published 2025)
